Reference: the supplement of paper PMC10331698
± gives the standard deviation of the averaged measurements.

Legend:
Assay in all cases: level (log10 ratio to DMSO vehicle control); higher = higher biomarker level / cell amount than vehicle control
Details in all cases: in DMSO
[1] = compound: O=S(=O)(O)C(F)(F)C(F)(F)C(F)(F)C(F)(F)C(F)(F)C(F)(F)F [Perfluorohexanesulfonic acid]
Protocol: (§1)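 BioMAP Diversity Plus panel of 12 human primary cell co-culture systems (3C, 4H, LPS, SAg, BT, BF4T, BE3C, CASM3C, HDF3CGF, KF3CT, MyoF, Mphg). Compounds were added 1 h before stimulation and left for 24 h (MyoF 48 h; BT 72 h for soluble read-outs or 6 d for IgG). Biomarkers were read by ELISA, cytotoxicity by SRB, PBMC viability and proliferation by Alamar Blue. Each well value was divided by the mean of 8 DMSO control wells on the same plate and log10 transformed; duplicate blinded samples were tested at 4 concentrations.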

[2] = compound: FC(F)(F)C(F)(F)C(F)(F)C(F)(F)C(F)(F)C(F)(F)I [Perfluoro-1-iodohexane]
Protocol: as §1

[3] = compound: FC(F)(F)C(F)(F)C(F)(F)C(F)(F)C(F)(F)C(F)(F)C(F)(F)C(F)(F)CCS [2-(Perfluorooctyl)ethanthiol]
Protocol: as §1

[4] = compound: O=C(O)C(F)(F)C(F)(F)C(F)(F)C(F)(F)C(F)(F)C(F)(F)C(F)(F)C(F)(F)C(F)(F)F [Perfluorodecanoic acid]
Protocol: as §1

[5] = compound: C=CC(=O)OCC(F)(F)C(F)(F)C(F)(F)C(F)(F)C(F)(F)C(F)(F)C(F)(F)F [1H,1H-Perfluorooctyl acrylate]
Protocol: as §1

[6] = compound: O=C(O)C(F)(F)C(F)(F)OC(F)(F)F [Perfluoro-3-methoxypropanoic acid]
Protocol: as §1

[7] = compound: O=C(O)C(F)(F)C(F)(F)C(F)(F)OC(F)(C(F)(F)F)C(F)(F)F [Perfluoro-4-isopropoxybutanoic acid]
Protocol: as §1

| Test System | level (log10) ([1]; 6700 nM) | level (log10) ([1]; 20000 nM) | level (log10) ([1]; 60000 nM) | level (log10) ([2]; 6700 nM) | level (log10) ([2]; 20000 nM) | level (log10) ([2]; 60000 nM) | level (log10) ([3]; 6700 nM) | level (log10) ([3]; 20000 nM) | level (log10) ([4]; 6700 nM) | level (log10) ([4]; 20000 nM) | level (log10) ([5]; 6700 nM) | level (log10) ([5]; 20000 nM) | level (log10) ([5]; 60000 nM) | level (log10) ([6]; 6700 nM) | level (log10) ([6]; 20000 nM) | level (log10) ([6]; 60000 nM) | level (log10) ([7]; 6700 nM) | level (log10) ([7]; 20000 nM) | level (log10) ([7]; 60000 nM) |
| --- | --- | --- | --- | --- | --- | --- | --- | --- | --- | --- | --- | --- | --- | --- | --- | --- | --- | --- | --- |
| CASM3C:LDLR | -0.014 ± 0.0042 | -0.0055 ± 0.0035 | 0.0155 ± 0.039 | -0.008 ± 0.0057 | 0.0155 ± 0.016 | 0.005 ± 0.028 | -0.025 ± 0.04 | -0.0505 ± 0.0092 | -0.0045 ± 0.0078 | 0.0105 ± 0.03 | 0.011 | 0.006 ± 0.0099 | 0.016 ± 0.016 | 0.0105 ± 0.016 | 0.01 ± 0.028 | 0.013 ± 0.013 | 0.012 ± 0.0014 | 0.017 ± 0.011 | 0 ± 0.0014 |
| CASM3C:M-CSF | -0.007 ± 0.028 | -0.012 ± 0.014 | 0.0305 ± 0.00071 | -0.0125 ± 0.025 | 0.0055 ± 0.032 | 0.0085 ± 0.043 | 0.013 ± 0.0014 | 0.047 ± 0.014 | 0.0145 ± 0.0078 | 0.0345 ± 0.019 | -0.0205 ± 0.032 | 0.0135 ± 0.00071 | -0.0075 ± 0.0021 | -0.001 ± 0.011 | -0.001 ± 0.03 | 0.031 ± 0.0071 | 0.0165 ± 0.032 | 0.0075 ± 0.039 | 0.0155 ± 0.043 |
| CASM3C:PAI-I | 0.001 ± 0.013 | 0.002 ± 0.0028 | 0.006 | -0.003 ± 0.0071 | -0.007 ± 0.0014 | -0.003 ± 0.0028 | -0.014 ± 0.017 | 0.0055 ± 0.026 | 0.001 ± 0.0014 | -0.0015 ± 0.005 | 0 ± 0.0014 | -0.0075 ± 0.011 | 0.004 ± 0.0057 | 0.0015 ± 0.022 | 0.004 ± 0.013 | 0.0095 ± 0.0078 | 0.007 ± 0.016 | 0.01 ± 0.021 | 0.0075 ± 0.026 |
| CASM3C:Proliferation | 0.014 ± 0.014 | 0.002 ± 0.014 | 0.0185 ± 0.011 | 0.023 ± 0.0071 | -0.02 ± 0.013 | -0.021 ± 0.067 | 0.006 ± 0.0071 | -0.0105 ± 0.053 | 0.049 ± 0.0028 | 0.0205 ± 0.035 | -0.0105 ± 0.029 | 0.0435 ± 0.013 | -0.028 ± 0.027 | -0.024 ± 0.023 | -0.0095 ± 0.029 | -0.0075 ± 0.025 | -0.018 ± 0.0099 | -0.037 ± 0.025 | -0.0085 ± 0.057 |
| CASM3C:SRB | -0.0045 ± 0.0021 | -0.0015 ± 0.012 | -0.0025 ± 0.016 | 0.0035 ± 0.013 | 0.0015 ± 0.0021 | -0.0015 ± 0.016 | 0.002 ± 0.0085 | 0.0095 ± 0.0064 | 0.0055 ± 0.0064 | 0.0055 ± 0.0064 | -0.007 ± 0.011 | 0.0005 ± 0.0078 | 0.0005 ± 0.00071 | 0.0025 ± 0.005 | -0.0045 ± 0.005 | 0.0075 ± 0.015 | 0.0015 ± 0.005 | -0.007 ± 0.0071 | 0.0015 ± 0.012 |
| CASM3C:Serum Amyloid A | -0.0215 ± 0.057 | -0.0085 ± 0.015 | 0.007 ± 0.021 | 0.0035 ± 0.042 | 0.008 ± 0.035 | 0.007 ± 0.025 | -0.0145 ± 0.013 | 0.002 ± 0.047 | 0.035 ± 0.031 | 0.0345 ± 0.026 | 0.03 ± 0.014 | 0.032 ± 0.044 | 0.0485 ± 0.013 | -0.0155 ± 0.0064 | -0.017 ± 0.0099 | 0.008 ± 0.069 | -0.0025 ± 0.0078 | -0.0295 ± 0.013 | 0.0165 ± 0.081 |
| HDF3CGF:CCL2/MCP-1 | 0.009 ± 0.0057 | 0.007 ± 0.014 | 0.021 ± 0.031 | -0.0125 ± 0.013 | -0.02 ± 0.0099 | -0.065 ± 0.034 | -0.0505 ± 0.03 | -0.077 ± 0.014 | -0.0595 ± 0.0078 | 0.042 ± 0.034 | -0.0055 ± 0.018 | -0.0235 ± 0.021 | -0.046 ± 0.03 | -0.002 ± 0.0071 | -0.0055 ± 0.00071 | 0.0085 ± 0.022 | 0.013 ± 0.0028 | 0.0335 ± 0.019 | 0.0425 ± 0.0021 |
| HDF3CGF:CD54/ICAM-1 | -0.0195 ± 0.00071 | -0.0325 ± 0.00071 | -0.0345 ± 0.0035 | -0.014 ± 0.0099 | -0.0225 ± 0.013 | -0.0255 ± 0.0078 | -0.012 ± 0.0057 | -0.0145 ± 0.021 | -0.0485 ± 0.0092 | -0.071 | -0.015 ± 0.0028 | -0.037 ± 0.0042 | -0.0545 ± 0.013 | -0.017 ± 0.0028 | -0.0025 ± 0.005 | -0.0055 ± 0.00071 | -0.009 ± 0.0071 | -0.01 ± 0.0028 | -0.031 ± 0.017 |
